Data as given in PubChem BioAssay AID248 (DTP/NCI, 2004).
Where “and” joins values, the source holds several entries; their conditions need not be identical. Equal entries are not always repeated. Inconclusive results and toxic doses are left out. No stated cut-off is given here; in the data, active means T/C of 150% or more; inactive means T/C below 125%. Square brackets hold non-standard residues; d marks the D form. Peptide text beside a SMILES is read from it. * marks the point of attachment. NMeY = CN[CH](Cc1ccc(O)cc1)C(=O)O; Bn = c1ccc(C*)cc1

Tested on: L1210 leukemia ip in BDF1 mice, survival T/C
Assay: NCI In Vivo Anticancer Drug Screen. Data for tumor model L1210 Leukemia (intraperitoneal) in B6D2F1 (BDF1) mice
Conditions: endpoint: mean survival time, higher = longer survival
Procedure, shortened: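 Ratio derived from survival: compound-dosed mice over vehicle-dosed mice, all bearing a transplantable tumor.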

[1] = dose: 100.0 mg/kg/injection, schedule: Q01DX001 (ip), vehicle: saline
[2] = dose: 200.0 mg/kg/injection, schedule: Q01DX001 (ip), vehicle: saline
[3] = dose: 400.0 mg/kg/injection, schedule: Q01DX001 (ip), vehicle: saline
[4] = dose: 100.0 mg/kg/injection, schedule: Q01DX009 (ip), vehicle: Klucel (hydroxypropylcellulose) (HPC)
[5] = dose: 100.0 mg/kg/injection, schedule: Q04DX003 (ip), vehicle: other
[6] = dose: 200.0 mg/kg/injection, schedule: Q01DX009 (ip), vehicle: Klucel (hydroxypropylcellulose) (HPC)
[7] = dose: 200.0 mg/kg/injection, schedule: Q04DX003 (ip), vehicle: other
[8] = dose: 400.0 mg/kg/injection, schedule: Q01DX009 (ip), vehicle: Klucel (hydroxypropylcellulose) (HPC)
[9] = dose: 100.0 mg/kg/injection, schedule: Q01DX009 (ip), vehicle: saline with Tween-80
[10] = dose: 200.0 mg/kg/injection, schedule: Q01DX009 (ip), vehicle: saline with Tween-80
[11] = dose: 50.0 mg/kg/injection, schedule: Q01DX009 (ip), vehicle: saline
[12] = dose: 100.0 mg/kg/injection, schedule: Q04DX003 (ip), vehicle: saline
[13] = dose: 50.0 mg/kg/injection, schedule: Q01DX001 (ip), vehicle: saline
[14] = dose: 100.0 mg/kg/injection, schedule: Q04DX002 (ip), vehicle: Klucel (hydroxypropylcellulose) (HPC)
[15] = dose: 200.0 mg/kg/injection, schedule: Q04DX002 (ip), vehicle: Klucel (hydroxypropylcellulose) (HPC)
[16] = dose: 400.0 mg/kg/injection, schedule: Q04DX002 (ip), vehicle: Klucel (hydroxypropylcellulose) (HPC)

Measured: T/C

CCP(CC)c1ccccc1
inactive: dose: 100.0 mg/kg/injection, schedule: Q01DX009 (sc), vehicle: olive oil, sesame oil, peanut oil 100 % of control | dose: 100.0 mg/kg/injection, schedule: Q04DX003 (sc), vehicle: olive oil, sesame oil, peanut oil 98 % of control | dose: 200.0 mg/kg/injection, schedule: Q01DX009 (sc), vehicle: olive oil, sesame oil, peanut oil 102 % of control | dose: 200.0 mg/kg/injection, schedule: Q04DX003 (sc), vehicle: olive oil, sesame oil, peanut oil 96 % of control | dose: 400.0 mg/kg/injection, schedule: Q01DX009 (sc), vehicle: olive oil, sesame oil, peanut oil 107 % of control | dose: 400.0 mg/kg/injection, schedule: Q04DX003 (sc), vehicle: olive oil, sesame oil, peanut oil 98 % of control

c1ccc(CCCCc2ccc(CCCCc3ccccc3)cc2)cc1
inactive: [1] 101 % of control | [2] 93 % of control | [3] 93 % of control

CC(C)(C)C(N)=O
inactive: [4] 92 % of control | [5] 94 % of control | [6] 90 % of control | [7] 98 % of control | [8] 95 % of control | dose: 400.0 mg/kg/injection, schedule: Q04DX003 (ip), vehicle: other 98 % of control

CCCCCCCC/C=C\CCCCCCCC(=O)OCC1CCCO1 (centres undefined)
inactive: [9] 95 % of control | [10] 90 % of control | dose: 400.0 mg/kg/injection, schedule: Q01DX009 (ip), vehicle: saline with Tween-80 92 % of control

Cn1c(=O)c2c(nc(OCCC3CCCCC3)n2C)n(C)c1=O
inactive: dose: 50.0 mg/kg/injection, schedule: Q01DX001 (ip), vehicle: other 90 % of control | dose: 100.0 mg/kg/injection, schedule: Q01DX001 (ip), vehicle: other 95 % of control | dose: 200.0 mg/kg/injection, schedule: Q01DX001 (ip), vehicle: other 90 % of control | dose: 400.0 mg/kg/injection, schedule: Q01DX001 (ip), vehicle: other 93 % of control

CNc1n[n+](-c2ccccc2)no1
inactive: dose: 25.0 mg/kg/injection, schedule: Q01DX009 (ip), vehicle: saline 93 % of control | dose: 25.0 mg/kg/injection, schedule: Q04DX003 (ip), vehicle: saline 111 % of control | [11] 109 % of control | dose: 50.0 mg/kg/injection, schedule: Q04DX003 (ip), vehicle: saline 104 % of control | [12] 97 % of control and 101 % of control

C1CN(C[C@H]2COC[C@@H](CN3CCOCC3)O2)CCO1
inactive: dose: 75.0 mg/kg/injection, schedule: Q04DX003 (ip), vehicle: saline 98 % of control | dose: 150.0 mg/kg/injection, schedule: Q04DX003 (ip), vehicle: saline 106 % of control | dose: 300.0 mg/kg/injection, schedule: Q04DX003 (ip), vehicle: saline 95 % of control

CC(C)OC(=S)SSc1nc2ccccc2s1
inactive: dose: 50.0 mg/kg/injection, schedule: Q01DX009 (ip), vehicle: saline with Tween-80 103 % of control | [9] 92 % of control | dose: 100.0 mg/kg/injection, schedule: Q04DX003 (ip), vehicle: saline with Tween-80 90 % of control | [10] 96 % of control | dose: 200.0 mg/kg/injection, schedule: Q04DX003 (ip), vehicle: saline with Tween-80 96 % of control

Cc1ccc(Cl)cc1NS(=O)(=O)c1ccccc1[N+](=O)[O-]
inactive: [4] 93 % of control | [6] 93 % of control | [8] 96 % of control

CN(C)C1C=CS(=O)(=O)C1 (centres undefined)
inactive: dose: 100.0 mg/kg/injection, schedule: Q01DX001 (ip), vehicle: Klucel (hydroxypropylcellulose) (HPC) 106 % of control | dose: 200.0 mg/kg/injection, schedule: Q01DX001 (ip), vehicle: Klucel (hydroxypropylcellulose) (HPC) 106 % of control

CNC(Cc1ccc(OCc2ccccc2)cc1)C(=O)NC(CC(C)C)C(=O)OC (centres undefined) (H-[NMeY](Bn)-Leu-OMe; configuration not given here)
inactive: [11] 97 % of control | dose: 100.0 mg/kg/injection, schedule: Q01DX009 (ip), vehicle: saline 100 % of control | [12] 104 % of control | dose: 200.0 mg/kg/injection, schedule: Q04DX003 (ip), vehicle: saline 102 % of control

CCOC(=O)C1(C(=O)O)CC2C(C)C=CC(C)C2C1 (centres undefined)
inactive: dose: 100.0 mg/kg/injection, schedule: Q04DX003 (ip), vehicle: Klucel (hydroxypropylcellulose) (HPC) 100 % of control | dose: 200.0 mg/kg/injection, schedule: Q04DX003 (ip), vehicle: Klucel (hydroxypropylcellulose) (HPC) 94 % of control | dose: 400.0 mg/kg/injection, schedule: Q04DX003 (ip), vehicle: Klucel (hydroxypropylcellulose) (HPC) 91 % of control

c1ccc(C2C(c3ccccc3)N2CCNC2=NCCN2)cc1 (centres undefined)
inactive: dose: 12.5 mg/kg/injection, schedule: Q01DX009 (ip), vehicle: Klucel (hydroxypropylcellulose) (HPC) 91 % of control | dose: 25.0 mg/kg/injection, schedule: Q01DX009 (ip), vehicle: Klucel (hydroxypropylcellulose) (HPC) 102 % of control | dose: 50.0 mg/kg/injection, schedule: Q01DX009 (ip), vehicle: Klucel (hydroxypropylcellulose) (HPC) 91 % of control

CCCCCCCCCCCCCCCC[As](=O)(O)CCCCCCCCCCCCCCCC
inactive: [13] 97 % of control | [1] 97 % of control | [2] 89 % of control | [3] 101 % of control

ClC1=C(Cl)C2(Cl)C(COc3ccc(Cl)cc3)CC1(Cl)C2(Cl)Cl (centres undefined)
inactive: dose: 50.0 mg/kg/injection, schedule: Q01DX009 (ip), vehicle: other 91 % of control | [4] 94 % of control | [5] 109 % of control | [6] 96 % of control | [7] 104 % of control | [8] 96 % of control

CCOC(=O)N1C(C(=O)c2ccccc2)N(Cc2ccccc2)C(c2ccccc2)N1C(=O)OCC (centres undefined)
inactive: [13] 105 % of control | [1] 97 % of control | [2] 105 % of control | [3] 100 % of control

O=[N+]([O-])c1ccc(\C=C/C=C/C=C/C2(CCl)OCCO2)cc1
inactive: dose: 100.0 mg/kg/injection, schedule: Q01DX001 (ip), vehicle: saline with Tween-80 91 % of control | dose: 200.0 mg/kg/injection, schedule: Q01DX001 (ip), vehicle: saline with Tween-80 87 % of control

CCOc1ccc([N+](=O)[O-])cc1N(C)C(C)=O
inactive: dose: 75.0 mg/kg/injection, schedule: Q01DX001 (ip), vehicle: saline 102 % of control | dose: 150.0 mg/kg/injection, schedule: Q01DX001 (ip), vehicle: saline 102 % of control | dose: 300.0 mg/kg/injection, schedule: Q01DX001 (ip), vehicle: saline 107 % of control

CCNc1nnnn1-c1ccccc1
inactive: [1] 97 % of control | [2] 101 % of control

Nc1ncnc2c1ncn2[C@H]1CC[C@@H](CO)C1
inactive: [1] 106 % of control | [2] 97 % of control

Nc1ccc(S(=O)(=O)NS(=O)(=O)c2ccccc2)cc1
inactive: [1] 95 % of control | [2] 93 % of control | [3] 101 % of control

CC(=O)OCCc1ccc(Cl)cc1
inactive: dose: 100.0 mg/kg/injection, schedule: Q04DX002 (ip), vehicle: saline with Tween-80 93 % of control | dose: 200.0 mg/kg/injection, schedule: Q04DX002 (ip), vehicle: saline with Tween-80 96 % of control | dose: 400.0 mg/kg/injection, schedule: Q04DX002 (ip), vehicle: saline with Tween-80 100 % of control

CCCCCCCCCC(=O)c1ccccc1
inactive: [14] 96 % of control | [15] 103 % of control | [16] 100 % of control

Cc1cccc(C)c1NC(=S)Nc1ccccc1
inactive: [14] 101 % of control | [15] 105 % of control | [16] 90 % of control

CCC[CH2][Sn]1([CH2]CCC)[O]OC(C)(CC)[O]1 (centres undefined)
inactive: dose: 6.25 mg/kg/injection, schedule: Q01DX009 (ip), vehicle: saline sonified 108 % of control

O=C1CCCC(=O)N1.[Tl]
inactive: dose: 3.12 mg/kg/injection, schedule: Q04DX003 (ip), vehicle: water 108 % of control | dose: 6.25 mg/kg/injection, schedule: Q04DX003 (ip), vehicle: water 102 % of control | dose: 12.5 mg/kg/injection, schedule: Q04DX003 (ip), vehicle: water 96 % of control
